Experimental data as given in patent publication US9796753B2, “N-substituted indenoisoquinolines and syntheses thereof” (Purdue Research Foundation, priority 2005, dated 2017).
Like-named read-outs stand apart in the source and are kept apart here.

What was measured:
[1] = tested on: lung HOP-62; assay: COMPARE screening (NCI human cancer cell line screen), cytotoxicity GI50; assay type: cell-based
In short: (§1)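 Compounds went into the NCI developmental therapeutics 60-cell-line screen at 100, 10, 1, 0.1 and 0.01 μM. After 48 h incubation, sulforhodamine B staining gave optical densities used to derive percentage growth.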

[2] = tested on: CNS SF-539; assay: as above; assay type: cell-based
In short: as §1

[3] = tested on: prostate DU-145; assay: as above; assay type: cell-based
In short: as §1

[4] = tested on: renal SN12C; assay: as above; assay type: cell-based
In short: as §1

[5] = tested on: ovarian OVCAR-3; assay: as above; assay type: cell-based
In short: as §1

[6] = tested on: colon HCT-116; assay: as above; assay type: cell-based
In short: as §1

[7] = tested on: melanoma UACC-62; assay: as above; assay type: cell-based
In short: as §1

[8] = tested on: breast MDA-MB-435; assay: as above; assay type: cell-based
Description: COMPARE screening. The compounds described herein were examined for antiproliferative activity against the human cancer cell lines in the National Cancer Institute screen (COMPARE screening), in which the activity of each compound was evaluated with approximately 55 different cancer cell lines of diverse tumor origins. […] Therefore, the MGM value represents an overall assessment of toxicity of the compound across numerous cell lines.

[9] = tested on: all human cancer cell lines successfully tested; assay: NCI screen mean graph midpoint (MGM) for growth inhibition; assay type: cell-based
In short: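 NCI60 panel cells exposed to compound at 100, 10, 1, 0.1 and 0.01 μM for 48 h, then sulforhodamine B staining. Percentage growth versus control plotted against log concentration; MGM is the midpoint across all lines tested.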

[10] = tested on: panel of twelve human tumor cell lines; assay: Hollow fiber assay; assay type: in vivo; set-up: key to IP Score / SC score / Total score: 2 points each time viable cell mass falls ≥50% vs vehicle controls; key to Cell kill: A net cell kill at one or more implant sites is indicated with a Y; conditions: for IP Score: intraperitoneal fibers in athymic nude mice, score 2 per 50% or greater reduction in viable cell mass; for IP Score / SC score: compounds IP once daily, four doses, two dose levels; for SC score: subcutaneous fibers in athymic nude mice; for Total score: sum of IP and SC scores; for Cell kill: net cell kill at one or more implant sites
Description: Hollow Fiber Activity. […] The effects of the compounds on the reduction of viable cancer cell mass compared to those of controls were determined. Each compound was tested in the hollow fiber assay against a panel of twelve human tumor cell lines as described previously; see, Hollingshead, M.; Plowman, J.; Alley, M.; Mayo, J.; Sausville, E., The Hollow Fiber Assay. Contrib. Oncol. 1999, 54, 109-120; and Plowman, J.; Camalier, R.; Alley, M.; Sausville, E.; Schepartz, S. Contrib. Oncol. […] The compounds were solubilized in 10% DMSO in saline/Tween-80® and administered intraperitoneally once daily for a total of four doses at each of two dose levels. The two doses were selected based on single dose toxicity studies for each derivative. A score of 2 was assigned each time the compound produced a 50% or greater reduction in viable cell mass compared to vehicle-treated controls. The score for each compound was summed for the intraperitoneal fibers and the subcutaneous fibers to provide the total score for each derivative as shown in Table 3 and Table 4. For comparative purposes, the score for the clinically used anticancer drug paclitaxel is provided.

[11] = Table 1, concentration corresponding to 50% growth inhibition, read-out: cytotoxicity (GI50) ovarian OVCAR-3
[12] = Table 1, average GI50 of all cell lines tested (approximately 55), test range 10^−8 to 10^−4 molar
[13] = lung HOP-62, concentration corresponding to 50% growth inhibition, read-out: cytotoxicity (GI50 in μM) lung HOP-62
[14] = CNS SF-539, concentration corresponding to 50% growth inhibition, read-out: cytotoxicity (GI50 in μM) CNS SF-539
[15] = renal SN12C, concentration corresponding to 50% growth inhibition, read-out: cytotoxicity (GI50 in μM) renal SN12C
[16] = ovarian OVCAR-3, concentration corresponding to 50% growth inhibition, read-out: cytotoxicity (GI50 in μM) ovarian OVCAR-3
[17] = colon HCT-116, concentration corresponding to 50% growth inhibition, read-out: cytotoxicity (GI50 in μM) colon HCT-116
[18] = melanoma UACC-62, concentration corresponding to 50% growth inhibition, read-out: cytotoxicity (GI50 in μM) melanoma UACC-62
[19] = breast MDA-MB-435, concentration corresponding to 50% growth inhibition, read-out: cytotoxicity (GI50 in μM) breast MDA-MB-435
[20] = all human cancer cell lines successfully tested

Row | SMILES | GI50 [1] [µM] | GI50 [2] [µM] | GI50 [3] [µM] | GI50 [4] [µM] | GI50 [5, 11] [µM] | GI50 [6] [µM] | GI50 [7] [µM] | GI50 [8] [µM] | MGM (mean graph midpoint for growth inhibition) [9, 12] [µM] | IP Score ([10]; Table 3) | SC score ([10]; Table 3) | Total score ([10]; Table 3) | MGM (mean graph midpoint for growth inhibition) [9, 20] [µM] | IP Score ([10]; Table 4) | SC score ([10]; Table 4) | Total score ([10]; Table 4) | GI50 [5] [µM] | further results
1 | COc1cc2c3c(n(CCCN4CCCC(O)C4)c(=O)c2cc1OC)-c1cc2c(cc1C3=O)OCO2.Cl (stereo not shown) [Compound 5s, 6-[3-(3-Hydroxypiperidinyl)-1-propyl]-5,6-dihydro-2,3-dimethoxy-8,9-methylenedioxy-5,11-dioxo-11H-indeno[1,2-c]isoquinoline Hydrochloride] | < 0.005 | < 0.005 | < 0.005 | 0.126 | 5.75 | < 0.005 | 5.01 | 0.977 | 0.243 ± 0.088 | 6 | 0 | 6 | – | – | – | – | – | –
2 | O=C(O)C(F)(F)F.O=C(O)C(F)(F)F.O=C1c2ccccc2-c2c1c1ccccc1c(=O)n2CCCNCCCNCCCn1c2c(c3ccccc3c1=O)C(=O)c1ccccc1-2 [Compound 14g, Bis-1,3-{(5,6-dihydro-5,11-diketo-11H-indeno[1,2-c]isoquinoline)-6-propylamino}propane Bis(trifluoroacetate)] | – | – | – | – | – | – | – | – | – | – | – | – | 0.394 ± 0.33 | 26 | 6 | 32 | – | GI50 [1, 13]: < 0.01 µM; GI50 [2, 14]: 0.011 µM; GI50 [4, 15]: < 0.01 µM; GI50 [5, 16]: 0.074 µM; GI50 [6, 17]: < 0.01 µM; GI50 [7, 18]: 0.042 µM; GI50 [8, 19]: 0.107 µM
3 | O=C(O)C(F)(F)F.O=C(O)C(F)(F)F.O=C1c2ccccc2-c2c1c1ccccc1c(=O)n2CCNCCCNCCn1c2c(c3ccccc3c1=O)C(=O)c1ccccc1-2 [Compound 14d, Bis-1,3-{(5,6-dihydro-5,11-diketo-11H-indeno[1,2-c]isoquinoline)-6-ethylamino}propane Bis(trifluoroacetate)] | – | – | – | – | – | – | – | – | – | – | – | – | 0.122 ± 0.064 | 2 | 4 | 6 | – | GI50 [1, 13]: 0.339 µM; GI50 [2, 14]: 0.155 µM; GI50 ([3]; prostate DU-145, concentration corresponding to 50% growth inhibition, read-out: cytotoxicity (GI50 in μM) prostate DU-145): 0.079 µM; GI50 [4, 15]: < 0.005 µM; GI50 [5, 16]: 0.093 µM; GI50 [6, 17]: < 0.005 µM; GI50 [7, 18]: 0.182 µM; GI50 [8, 19]: 0.024 µM
4 | COc1cc2c3c(n(CCCN4CCN(CCO)CC4)c(=O)c2cc1OC)-c1cc2c(cc1C3=O)OCO2 [Compound 5w, 3-[(1-Hydroxyethyl-piperazine)-1-propyl]-5,6-dihydro-2,3-dimethoxy-8,9-methylenedioxy-5,11-dioxo-11H-indeno[1,2-c]isoquinoline] | 9.77 | 1.44 | 0.275 | > 100 | – | 2.34 | 1.23 | > 100 | 7.86 ± 0.27 | 8 | 0 | 8 | – | – | – | – | 15.1 | –
5 | O=C(O)C(F)(F)F.O=C(O)C(F)(F)F.O=C1c2ccccc2-c2c1c1ccccc1c(=O)n2CCCNCCCCNCCCn1c2c(c3ccccc3c1=O)C(=O)c1ccccc1-2 [Compound 14h, Bis-1,4-{(5,6-dihydro-5,11-diketo-11H-indeno[1,2-c]isoquinoline)-6-propylamino}butane Bis(trifluoroacetate)] | 0.525 | 0.251 | 0.234 | < 0.005 | – | < 0.005 | 0.562 | 0.676 | – | – | – | – | 0.225 ± 0.084 | 12 | 4 | 16 | 0.135 | –
6 | COc1cc2c3c(n(CCCN4CCNCC4)c(=O)c2cc1OC)-c1cc2c(cc1C3=O)OCO2.Cl.Cl [Compound 5p, 6-(3-Piperazinyl-1-propyl)-5,6-dihydro-2,3-dimethoxy-8,9-methylenedioxy-5,11-dioxo-11H-indeno[1,2-c]isoquinoline Dihydrochloride] | < 0.005 | < 0.005 | 0.015 | 0.091 | 2.04 | 0.575 | 1.2 | 4.57 | 0.382 ± 0.119 | 16 | 2 | 18 | – | – | – | – | – | –
7 | COc1cc2c3c(n(CCCN4CCCNCC4)c(=O)c2cc1OC)-c1cc2c(cc1C3=O)OCO2.Cl.Cl [Compound 5v, 6-(3-Homopiperazinyl-1-propyl)-5,6-dihydro-2,3-dimethoxy-8,9-methylenedioxy-5,11-dioxo-11H-indeno[1,2-c]isoquinoline Dihydrochloride] | < 0.005 | 0.145 | 0.081 | 0.145 | 5.01 | 0.214 | 0.457 | 2.63 | 0.715 ± 0.335 | 12 | 2 | 14 | – | – | – | – | – | –
8 | O=C(O)C(F)(F)F.O=C(O)C(F)(F)F.O=C(O)C(F)(F)F.O=C1c2ccccc2-c2c1c1ccccc1c(=O)n2CCNCCNCCNCCn1c2c(c3ccccc3c1=O)C(=O)c1ccccc1-2 [Compound 14i, Bis{(5,6-dihydro-5,11-diketo-11H-indeno[1,2-c]isoquinoline)-6-ethylamino-ethyl}amine Tris(trifluoroacetate)] | 0.048 | 0.275 | 0.331 | 0.017 | – | 0.112 | 0.269 | 1 | – | – | – | – | 0.474 ± 0.143 | 10 | 6 | 16 | 1.15 | –
9 | CC(=O)O[C@H]1C(=O)[C@@]2(C)[C@H]([C@H](OC(=O)c3ccccc3)[C@]3(O)C[C@H](OC(=O)[C@H](O)[C@@H](NC(=O)c4ccccc4)c4ccccc4)C(C)=C1C3(C)C)[C@]1(OC(C)=O)CO[C@@H]1C[C@@H]2O [Paclitaxel, paclitaxel, reference compound] | – | – | – | – | – | – | – | – | – | 24 | 8 | 32 | – | 24 | 8 | 32 | – | Cell kill ([10]; Table 3): Y; Cell kill ([10]; Table 4): Y
10 | COc1cc2c3c(n(CCCNc4nccs4)c(=O)c2cc1OC)-c1cc2c(cc1C3=O)OCO2.Cl.Cl [Compound 5o, 6-(3-Thiazolylamino-1-propyl)-5,6-dihydro-2,3-dimethoxy-8,9-methylenedioxy-5,1-dioxo-11H-indeno[1,2-c]isoquinoline Dihydrochloride] | < 0.01 | < 0.01 | < 0.01 | < 0.01 | 0.041 | < 0.01 | 0.014 | < 0.01 | 0.112 ± 0.066 | – | – | – | – | – | – | – | – | –
11 | COc1cc2c3c(n(CCN4CCOCC4)c(=O)c2cc1OC)-c1ccccc1C3=O [Compound 5h] | 89.1 | > 100 | > 100 | > 100 | – | 60.3 | 56.2 | > 100 | – | – | – | – | – | – | – | – | > 100 | MGM (mean GI50 across cell lines) [9, 12]: 741000 nM
